Where “and” joins values, the source holds several entries; their conditions need not be identical. Identical values can stand only once.
Tests used:
S. pneumoniae T14 [1] = test: Growth of S. pneumoniae T14 in fermentation with azido sugar (OD600); assay type: cell-based, Streptococcus pneumoniae serotype 14; details: production media + 2AzGlc (10 mM)
Experimental: FIGS. 1A-1D. Screen for azido sugar incorporation into S. pneumoniae T14 capsule polysaccharide. Vessels (100 mL working volume) were inoculated with a 10-fold dilution of bacteria grown in seed expansion media supplemented with Galactose (30 g/L) (OD600=1.0-1.2) and incubated at 36° C. and 173 rpm with an air overlay of 1.5 SLPH. Media (production medium supplemented with Glucose (30 g/L) (black bars) or production medium supplemented with Galactose (30 g/L) (grey bars)) pH was controlled at 7.0. Bacteria were grown until the ΔOD600≥0 for >30 minutes, then lysed with 0.1% NLS for 30 minutes. Growth was measured offline using a spectrophotometer blanked with PBS at 600 nm. (FIG. 1A) azido incorporation into polysaccharide was then quantified via fluorescent labeling (FL) with normalization to refractive index (RI). MaxOD and End Of Fermentation time (EOF) are provided in (FIG. 1B) and (FIG. 1C), respectively. Polysaccharide was extracted using EtOH and CaCl2 and analyzed via SEC-RI for (FIG. 1D) polysaccharide titer. n=1-4, error bars=+/−StDev.
To identify azido sugars that could incorporate into S. pneumoniae T14 capsule, we grew S. pneumoniae T14 (serotype 14) in the production medium supplemented with various azido sugars (Table 3) supplied at 1 mM. We performed our screen using both production medium supplemented with Glucose (dextrose, 30 g/L) and production medium supplemented with Galactose (30 g/L).
We tested the impact of 2AzGlc concentration on S. pneumoniae T14 growth, polysaccharide production, and azido incorporation by growing the bacteria in production media (supplemented with Glucose (dextrose, 30 g/L)) with various concentrations of 2AzGlc (0, 1, 5, 10, 20, 40, and 60 mM).
To improve the incorporation of 2AzGlc into S. pneumoniae T14 capsule in production media (supplemented with Glucose (dextrose, 30 g/L)), we performed a 16-vessel DOE designed to test the impact of pH (6.33, 6.66, 7.00, and 7.33) and agitation (100, 200, and 300 rpm) on four response variables (MaxOD, Poly Titer, Poly Size, and FL/RI).

S. pneumoniae T14 [2] = test: as above; assay type: cell-based, Streptococcus pneumoniae serotype 14; details: for MaxOD600 nm: production media + 2AzGlc (10 mM)

[N-]=[N+]=N[C@@H](C=O)[C@@H](O)[C@H](O)[C@H](O)CO [2AzGlc, 2-Azido-2-deoxy-D-glucose]
MaxOD600 nm (S. pneumoniae T14 [1]; pH 6.33, agitation 100 rpm): 12.1 and 13.6 | MaxOD600 nm (S. pneumoniae T14 [1]; pH 6.33, agitation 300 rpm): 10.8 and 10.7 | MaxOD600 nm (S. pneumoniae T14 [1]; pH 7, agitation 100 rpm): 8.8 and 7.8 | MaxOD600 nm (S. pneumoniae T14 [1]; pH 7.33, agitation 100 rpm): 8.9 and 9.6 | MaxOD600 nm (S. pneumoniae T14 [1]; pH 7.33, agitation 200 rpm): 8.5 and 8.3 | rate of galactose consumption, of the batch model (S. pneumoniae T14 [2]; 2AzGlc addition, production medium + Galactose (30 g/L)): ~70% | concentration at which negative effect on growth started (S. pneumoniae T14 [2]; 2AzGlc titration, production media + Glucose (dextrose, 30 g/L)): 20 mM | growth with increasing 2AzGlc concentrations (S. pneumoniae T14 [2]; 2AzGlc titration, production medium + Galactose (30 g/L)): negatively impacted | MaxOD (S. pneumoniae T14 [2]; azido feed DOE: Gal 30 g/L, initial 2AzGlc 0 mM, 2AzGlc feed stock 4 mM, pH 7.33, 300 rpm): 9.78 and 9.56 | MaxOD (S. pneumoniae T14 [2]; azido feed DOE: Gal 30 g/L, initial 2AzGlc 0 mM, 2AzGlc feed stock 6.5 mM, pH 7.33, 300 rpm): 8.74 and 8.32 | MaxOD (S. pneumoniae T14 [2]; azido feed DOE: Gal 30 g/L, initial 2AzGlc 0.1 mM, 2AzGlc feed stock 4 mM, pH 7.33, 300 rpm): 8.96 and 8.13 | MaxOD (S. pneumoniae T14 [2]; azido feed DOE: Gal 30 g/L, initial 2AzGlc 0.1 mM, 2AzGlc feed stock 6.5 mM, pH 7.33, 300 rpm): 5.76 and 5.65 | MaxOD (S. pneumoniae T14 [2]; azido feed DOE: Gal 40 g/L, initial 2AzGlc 0 mM, 2AzGlc feed stock 4 mM, pH 7.33, 300 rpm): 9.78 and 7.39 | MaxOD (S. pneumoniae T14 [2]; azido feed DOE: Gal 40 g/L, initial 2AzGlc 0 mM, 2AzGlc feed stock 6.5 mM, pH 7.33, 300 rpm): 8.44 and 6.64 | MaxOD (S. pneumoniae T14 [2]; azido feed DOE: Gal 40 g/L, initial 2AzGlc 0.1 mM, 2AzGlc feed stock 4 mM, pH 7.33, 300 rpm): 8.53 and 8.4 | MaxOD (S. pneumoniae T14 [2]; azido feed DOE: Gal 40 g/L, initial 2AzGlc 0.1 mM, 2AzGlc feed stock 6.5 mM, pH 7.33, 300 rpm): 4.53 and 3.71 | growth (S. pneumoniae T14 [2]; azido sugar 20 mM without DMSO, production medium + Galactose (30 g/L)): strongly inhibited | OD600 nm at which growth stopped (S. pneumoniae T14 [2]; fed-batch, initial galactose 5.0 g/L, 0.25 mM 2AzGlc, regardless of feed rate): 3.0 | maximum OD600 nm (average) (S. pneumoniae T14 [2]; initial galactose 40 g/L, initial 2AzGlc 0.1 mM, 4.0 mM 2AzGlc feed stock): 8.5 | MaxOD600 nm (S. pneumoniae T14 [2]; pH 6.66, agitation 200 rpm): 11.7 | MaxOD600 nm (S. pneumoniae T14 [2]; pH 7, agitation 300 rpm): 11.3 and 12.9 | MaxOD600 nm (S. pneumoniae T14 [2]; pH 7.33, agitation 300 rpm): 10.5 and 10.4 | MaxOD (S. pneumoniae T14 [2]; production medium + Galactose (30 g/L) + 2AzGlc (0.25 mM), pH 6.33, agitation 100 rpm): 6.98 and 6.76 | MaxOD (S. pneumoniae T14 [2]; production medium + Galactose (30 g/L) + 2AzGlc (0.25 mM), pH 6.33, agitation 200 rpm): 6.81 | MaxOD (S. pneumoniae T14 [2]; production medium + Galactose (30 g/L) + 2AzGlc (0.25 mM), pH 6.33, agitation 300 rpm): 6.05 and 5.89 | MaxOD (S. pneumoniae T14 [2]; production medium + Galactose (30 g/L) + 2AzGlc (0.25 mM), pH 6.66, agitation 100 rpm): 8.96 | MaxOD (S. pneumoniae T14 [2]; production medium + Galactose (30 g/L) + 2AzGlc (0.25 mM), pH 6.66, agitation 300 rpm): 9.1 | MaxOD (S. pneumoniae T14 [2]; production medium + Galactose (30 g/L) + 2AzGlc (0.25 mM), pH 7, agitation 200 rpm): 9.38 | MaxOD (S. pneumoniae T14 [2]; production medium + Galactose (30 g/L) + 2AzGlc (0.25 mM), pH 7.33, agitation 100 rpm): 8.43 and 8.23 | MaxOD (S. pneumoniae T14 [2]; production medium + Galactose (30 g/L) + 2AzGlc (0.25 mM), pH 7.33, agitation 300 rpm): 8.54 and 8.26 | maximum OD (S. pneumoniae T14 [2]; screen, azido sugar 1 mM, only in production medium + Galactose): reduced

Source: patent publication US20250163484A1, “Methods for Incorporating Azido Groups in Bacterial Capsular Polysaccharides” (PFIZER INC., priority 2022, published 2025)
